Molecules are shown by their SMILES.

In this assay the target is T1, PI3Kδ (Homo sapiens, UniProt O00329).
T1 construct: The protein is full length and co-expressed with untagged PIK3R1; GST; purchased Invitrogen PV5274
T1 sequence (O00329 whole entry): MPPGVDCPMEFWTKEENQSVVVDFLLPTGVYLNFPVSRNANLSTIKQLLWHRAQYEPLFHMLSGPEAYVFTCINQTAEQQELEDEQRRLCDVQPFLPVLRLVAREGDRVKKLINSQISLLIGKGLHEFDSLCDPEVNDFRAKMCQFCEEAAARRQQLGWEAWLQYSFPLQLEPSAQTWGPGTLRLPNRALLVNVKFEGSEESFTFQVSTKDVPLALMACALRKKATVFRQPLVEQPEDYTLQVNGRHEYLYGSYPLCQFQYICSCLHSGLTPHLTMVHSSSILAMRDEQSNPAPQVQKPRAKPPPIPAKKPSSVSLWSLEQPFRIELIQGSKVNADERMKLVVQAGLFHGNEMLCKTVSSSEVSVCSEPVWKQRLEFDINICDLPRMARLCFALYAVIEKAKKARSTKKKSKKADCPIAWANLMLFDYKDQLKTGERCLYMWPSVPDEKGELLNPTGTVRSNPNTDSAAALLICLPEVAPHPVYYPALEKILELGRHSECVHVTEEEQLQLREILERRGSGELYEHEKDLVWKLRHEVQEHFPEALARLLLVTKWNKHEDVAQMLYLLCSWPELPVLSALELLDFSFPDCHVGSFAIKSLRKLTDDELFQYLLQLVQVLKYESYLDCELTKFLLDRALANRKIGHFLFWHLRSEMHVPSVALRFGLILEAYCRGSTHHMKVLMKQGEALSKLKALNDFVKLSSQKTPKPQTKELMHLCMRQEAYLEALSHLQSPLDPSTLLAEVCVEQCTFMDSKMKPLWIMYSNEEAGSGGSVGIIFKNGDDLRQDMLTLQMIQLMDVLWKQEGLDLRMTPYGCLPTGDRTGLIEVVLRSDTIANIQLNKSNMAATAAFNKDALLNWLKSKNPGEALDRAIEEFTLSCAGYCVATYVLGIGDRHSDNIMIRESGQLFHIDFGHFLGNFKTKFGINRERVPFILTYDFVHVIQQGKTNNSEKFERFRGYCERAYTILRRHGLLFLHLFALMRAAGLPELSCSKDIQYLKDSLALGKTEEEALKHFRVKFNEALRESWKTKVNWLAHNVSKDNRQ
T1 sequence (P27986 whole entry partner): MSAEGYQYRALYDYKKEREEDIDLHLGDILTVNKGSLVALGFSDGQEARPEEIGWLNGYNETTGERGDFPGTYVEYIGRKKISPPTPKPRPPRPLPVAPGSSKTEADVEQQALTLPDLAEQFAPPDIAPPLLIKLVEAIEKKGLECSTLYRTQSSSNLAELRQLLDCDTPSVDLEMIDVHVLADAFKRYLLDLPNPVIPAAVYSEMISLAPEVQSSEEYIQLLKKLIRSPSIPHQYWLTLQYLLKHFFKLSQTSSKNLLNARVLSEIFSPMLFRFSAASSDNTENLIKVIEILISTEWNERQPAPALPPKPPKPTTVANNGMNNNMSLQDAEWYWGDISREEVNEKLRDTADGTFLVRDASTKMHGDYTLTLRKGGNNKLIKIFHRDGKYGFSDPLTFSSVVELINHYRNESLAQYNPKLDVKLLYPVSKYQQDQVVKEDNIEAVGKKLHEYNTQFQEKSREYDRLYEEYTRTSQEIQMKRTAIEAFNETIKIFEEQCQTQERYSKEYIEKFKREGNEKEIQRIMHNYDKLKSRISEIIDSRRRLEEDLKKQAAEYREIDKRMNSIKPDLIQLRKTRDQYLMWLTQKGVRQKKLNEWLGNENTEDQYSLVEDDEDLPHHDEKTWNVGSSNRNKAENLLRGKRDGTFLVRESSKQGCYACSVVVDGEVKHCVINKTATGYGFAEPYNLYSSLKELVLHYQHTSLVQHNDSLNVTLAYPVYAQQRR
The assay can be described thus: PI3Kδ inhibition, modified PIK3CD Adapta TR-FRET assay. The assay is classed as biochemical. The following applies: recombinant GST-tagged full length PIK3CD co-expressed with PIK3R1 (p85α); 2 μM ATP, 50 μM PIP2; read-out: PI3Kδ Inhibition (pIC50) (converted). The procedure: The activity of compounds as PI3Kδ inhibitors may be determined by a variety of methods, including in vitro and in vivo methods. The following in vitro assay measures a test compound's ability to inhibit PI3Kδ-mediated phosphorylation of PIP2 and ATP.
Recombinant GST-tagged PIK3CD is purchased from Invitrogen (Part Number: PV5274). The protein is full length and co-expressed with untagged PIK3R1, phosphoinositide-3-kinase regulatory subunit 1 (p85α). The protein is stored at −20° C. in 50 mM TRIS (pH 7.5), 150 mM NaCl, 0.5 mM EDTA, 0.02% Triton® X-100, 2 mM DTT, and 50% glycerol.
A modified PIK3CD Adapta® assay (Invitrogen, Carlsbad, Calif.) is used to measure PI3Kδ inhibition of the example compounds. The assay has two phases. In the first phase, kinase reaction components, which include the enzyme (PIK3CD), substrates (PIP2, ATP), test compound (inhibitor), and assay buffer are added to each well, and the reaction is allowed to incubate for a pre-determined period of time. […] In the presence of the inhibitor, the amount of ADP formed by the kinase reaction is reduced, and the resulting intact antibody-tracer interaction maintains a high TR-FRET signal.
The reaction buffer contains 50 mM Hepes (pH 7.5), 3 mM MgCl2, 1 mM EGTA, 100 mM NaCl, 0.03% CHAPS; 2 mM DTT is added fresh prior to each experiment. […] Next, test compounds (2 μL) from a source plate (5% dilution plate) are introduced into the wells. The final DMSO concentration in each assay well is 1%. […] Other wells contain test compounds serially diluted across the plate 11 times for a total of 12 data points. The kinase reactions are carried out at room temperature and are initiated by the addition of 4 μL of solution containing 2 μM ATP and 50 μM PIP2. […] This emission signal is referenced or “ratioed” to the emission from Eu at 620 nm. […] The percent inhibition for a given inhibitor concentration is computed from % conversion for the reaction and for the positive and negative controls.
A general note: Time-resolved FRET reads energy transfer from a long-lived donor to a nearby acceptor.
On to `O=C(Cc1coc2ccccc12)N1CC2COCCN2c2nc(-c3cccc4[nH]ccc34)ncc21` (centres unmarked) [Example 52, 1-(2-(1H-indol-4-yl)-6a,7,9,10-tetrahydro-[1,4]oxazino[3,4-h]pteridin-5(6H)-yl)-2-(benzofuran-3-yl)ethanone], for which the IC50 was 398 nM. With `O=C(OCc1ccccc1)N1CC2COCCN2c2nc(-c3cccc4[nH]ccc34)ncc21` (centres unmarked) [Example 53, benzyl 2-(1H-indol-4-yl)-6a,7,9,10-tetrahydro-[1,4]oxazino[3,4-h]pteridine-5(6H)-carboxylate], the IC50 was 251 nM.

For `O=C(Cc1c(F)cccc1F)N1CC2COCCN2c2nc(-c3cccc4[nH]ccc34)ncc21` (centres unmarked) [Example 54], the IC50 is 501 nM. For `CC(=O)N1CC2COCCN2c2nc(-n3c(C(F)F)nc4ccccc43)ncc21` (centres unmarked) [Example 55, 1-(2-(2-(difluoromethyl)-1H-benzo[c]imidazol-1-yl)-6a,7,9,10-tetrahydro-[1,4]oxazino[3,4-h]pteridin-5(6H)-yl)ethanone], the IC50 is 631 nM. As for `CC(=O)N1CC2COCCN2c2nc(-n3c(C)nc4ccccc43)ncc21` (centres unmarked) [Example 56, 1-(2-(2-methyl-1H-benzo[d]imidazol-1-yl)-6a,7,9,10-tetrahydro-[1,4]oxazino[3,4-h]pteridin-5(6H)-yl)ethanone], the IC50 is 3160 nM. On to `CC(C)(C)OC(=O)N[C@H]1CC[C@H](CN2CC3COCCN3c3nc(-c4cccc5[nH]ccc45)ncc32)CC1` (some centres unmarked) [Example 57, tert-butyl ((1r,4r)-4-((2-(1H-indol-4-yl)-6a,7,9,10-tetrahydro-[1,4]oxazino[3,4-h]pteridin-5(6H)-yl)methyl)cyclohexyl)carbamate], for which the IC50 was 794 nM. On to `N[C@H]1CC[C@H](CN2CC3COCCN3c3nc(-c4cccc5[nH]ccc45)ncc32)CC1` (some centres unmarked) [Example 58, (1r,4r)-4-((2-(1H-indol-4-yl)-6a,7,9,10-tetrahydro-[1,4]oxazino[3,4-h]pteridin-5(6H)-yl)methyl)cyclohexanamine], for which the IC50 was 501 nM. Turning to `N#Cc1ccc(F)c(CN2CC3COCCN3c3nc(-c4cccc5[nH]ccc45)ncc32)c1` (centres unmarked) [Example 60, 3-((2-(1H-indol-4-yl)-6a,7,9,10-tetrahydro-[1,4]oxazino[3,4-h]pteridin-5(6H)-yl)methyl)-4-fluorobenzonitrile], the IC50 is 31.6 nM. As for `CNC(=O)Nc1ccc(-c2ncc3c(n2)N2CCOCC2CN3Cc2ccccc2)cc1` (centres unmarked) [Example 61, 1-(4-(5-benzyl-5,6,6a,7,9,10-hexahydro-[1,4]oxazino[3,4-h]pteridin-2-yl)phenyl)-3-methylurea], the figure is 631 nM; as for `CNC(=O)Nc1ccc(-c2ncc3c(n2)N2CCOCC2CN3Cc2ccc(C)cc2)cc1` (centres unmarked) [Example 62, 1-methyl-3-(4-(5-(4-methylbenzyl)-5,6,6a,7,9,10-hexahydro-[1,4]oxazino[3,4-h]pteridin-2-yl)phenyl)urea], 794 nM. As to `CNC(=O)Nc1ccc(-c2ncc3c(n2)N2CCOCC2CN3Cc2ccc(Cl)cc2)cc1` (centres unmarked) [Example 63, 1-(4-(5-(4-chlorobenzyl)-5,6,6a,7,9,10-hexahydro-[1,4]oxazino[3,4-h]pteridin-2-yl)phenyl)-3-methylurea], the IC50 is 2510 nM. With `CNC(=O)Nc1ccc(-c2ncc3c(n2)N2CCOCC2CN3CC2CC2)cc1` (centres unmarked) [Example 64, 1-(4-(5-(cyclopropylmethyl)-5,6,6a,7,9,10-hexahydro-[1,4]oxazino[3,4-h]pteridin-2-yl)phenyl)-3-methylurea], the IC50 was 39.8 nM. The result for `CS(=O)(=O)c1ccc(CN2C[C@@H]3COCCN3c3nc(-n4c(C(F)F)nc5ccccc54)ncc32)cc1` [Example 67, (R)-2-(2-(difluoromethyl)-1H-benzo[d]imidazol-1-yl)-5-(4-(methylsulfonyl)benzyl)-5,6,6a,7,9,10-hexahydro-[1,4]oxazino[3,4-h]pteridine] reads 5.01 nM; that for `CC(C)(C)OC(=O)CN1C[C@@H]2COCCN2c2nc(-c3cccc4[nH]ccc34)ncc21` [Example 68, (R)-tert-butyl 2-(2-(1H-indol-4-yl)-6a,7,9,10-tetrahydro-[1,4]oxazino[3,4-h]pteridin-5(6H)-yl)acetate], 50.1 nM. With `O=C(O)CN1C[C@@H]2COCCN2c2nc(-c3cccc4[nH]ccc34)ncc21` [Example 69, (R)-2-(2-(1H-indol-4-yl)-6a,7,9,10-tetrahydro-[1,4]oxazino[3,4-h]pteridin-5(6H)-yl)acetic acid], the IC50 was 2510 nM. For the molecule `O=C(CN1C[C@@H]2COCCN2c2nc(-c3cccc4[nH]ccc34)ncc21)NCC1CC1` [Example 70, (R)-2-(2-(1H-indol-4-yl)-6a,7,9,10-tetrahydro-[1,4]oxazino[3,4-h]pteridin-5(6H)-yl)-N-(cyclopropylmethyl)acetamide], the IC50 is 200 nM. In the case of `CC(C)(O)CNC(=O)CN1C[C@@H]2COCCN2c2nc(-c3cccc4[nH]ccc34)ncc21` [Example 71, (R)-2-(2-(1H-indol-4-yl)-6a,7,9,10-tetrahydro-[1,4]oxazino[3,4-h]pteridin-5(6H)-yl)-N-(2-hydroxy-2-methylpropyl)acetamide], the IC50 was 398 nM. As for `O=C(CN1C[C@@H]2COCCN2c2nc(-c3cccc4[nH]ccc34)ncc21)NCc1cc[nH]n1` [Example 72, (R)-2-(2-(1H-indol-4-yl)-6a,7,9,10-tetrahydro-[1,4]oxazino[3,4-h]pteridin-5(6H)-yl)-N-((1H-pyrazol-3-yl)methyl)acetamide], the figure is 126 nM. Turning to `O=C(CN1C[C@@H]2COCCN2c2nc(-c3cccc4[nH]ccc34)ncc21)NCC1CCOCC1` [Example 73, (R)-2-(2-(1H-indol-4-yl)-6a,7,9,10-tetrahydro-[1,4]oxazino[3,4-h]pteridin-5(6H)-yl)-N-((tetrahydro-2H-pyran-4-yl)methyl)acetamide], the IC50 is 20 nM.

For `NC(=O)c1ccccc1CN1CC2COCCN2c2nc(-c3cccc4[nH]ccc34)ncc21` (centres unmarked) [Example 74, 2-((2-(1H-indol-4-yl)-6a,7,9,10-tetrahydro-[1,4]oxazino[3,4-h]pteridin-5(6H)-yl)methyl)benzamide], the IC50 is 63.1 nM. On to `NC(=O)c1ccc(F)cc1CN1CC2COCCN2c2nc(-c3cccc4[nH]ccc34)ncc21` (centres unmarked) [Example 75, 2-((2-(1H-indol-4-yl)-6a,7,9,10-tetrahydro-[1,4]oxazino[3,4-h]pteridin-5(6H)-yl)methyl)-4-fluorobenzamide], for which the IC50 was 316 nM. For `NC(=O)c1cccc(CN2CC3COCCN3c3nc(-c4cccc5[nH]ccc45)ncc32)c1` (centres unmarked) [Example 76, 3-((2-(1H-indol-4-yl)-6a,7,9,10-tetrahydro-[1,4]oxazino[3,4-h]pteridin-5(6H)-yl)methyl)benzamide], the IC50 was 31.6 nM. `NC(=O)c1ccc(F)c(CN2CC3COCCN3c3nc(-c4cccc5[nH]ccc45)ncc32)c1` (centres unmarked) [Example 77, 3-((2-(1H-indol-4-yl)-6a,7,9,10-tetrahydro-[1,4]oxazino[3,4-h]pteridin-5(6H)-yl)methyl)-4-fluorobenzamide]: the IC50 is 50.1 nM. Regarding `NC(=O)c1ccc(CN2CC3COCCN3c3nc(-c4cccc5[nH]ccc45)ncc32)cc1` (centres unmarked) [Example 78, 4-((2-(1H-indol-4-yl)-6a,7,9,10-tetrahydro-[1,4]oxazino[3,4-h]pteridin-5(6H)-yl)methyl)benzamide], the IC50 is 20 nM. `COc1cc(C(N)=O)ccc1CN1CC2COCCN2c2nc(-c3cccc4[nH]ccc34)ncc21` (centres unmarked) [Example 79, 4-((2-(1H-indol-4-yl)-6a,7,9,10-tetrahydro-[1,4]oxazino[3,4-h]pteridin-5(6H)-yl)methyl)-3-methoxybenzamide]: the IC50 is 50.1 nM.

With `Cc1cccc(CN2CC3COCCN3c3nc(-c4cccc5[nH]ccc45)ncc32)n1` (centres unmarked) [Example 80], the IC50 was 63.1 nM. For `c1cc(-c2ncc3c(n2)N2CCOCC2CN3Cc2nnc(C3CC3)o2)c2cc[nH]c2c1` (centres unmarked) [Example 81, 5-((5-cyclopropyl-1,3,4-oxadiazol-2-yl)methyl)-2-(1H-indol-4-yl)-5,6,6a,7,9,10-hexahydro-[1,4]oxazino[3,4-h]pteridine], the IC50 was 15.8 nM.

For the molecule `O=C(CN1C[C@@H]2COCCN2c2nc(-c3cccc(CO)c3)ncc21)NCC1CCOCC1` [Example 82, (R)-2-(2-(3-(hydroxymethyl)phenyl)-6a,7,9,10-tetrahydro-[1,4]oxazino[3,4-h]pteridin-5(6H)-yl)-N-((tetrahydro-2H-pyran-4-yl)methyl)acetamide], the IC50 was 12.6 nM.

In the case of `CC(C)(O)c1cccc(-c2ncc3c(n2)N2CCOC[C@H]2CN3CC(=O)NCC2CCOCC2)c1` [Example 83, (R)-2-(2-(3-(2-hydroxypropan-2-yl)phenyl)-6a,7,9,10-tetrahydro-[1,4]oxazino[3,4-h]pteridin-5(6H)-yl)-N-((tetrahydro-2H-pyran-4-yl)methyl)acetamide], the IC50 is 1000 nM.

For the origin of these results see US8791107B2, “N-substituted oxazinopteridines and oxazinopteridinones” (Takeda Pharmaceutical Company Limited, priority 2011, dated 2014).
